Structures can show the parent of a compound that is named as a salt.
What follows are molecules tested against Full length SHP2 protein (Recombinant Human SHP-2) (Homo sapiens (Human), UniProt Q06124) (assay: SHP2 biochemical assay (DiFMUP substrate, activating peptide IRSI_2pY)). Conditions: SHP-2 biochemical assay IC50 (μM), activating peptide IRSI_2pY 140 nM, DiFMUP, 60 min.
Full length SHP2 protein (Recombinant Human SHP-2), sequence (Q06124 2-593): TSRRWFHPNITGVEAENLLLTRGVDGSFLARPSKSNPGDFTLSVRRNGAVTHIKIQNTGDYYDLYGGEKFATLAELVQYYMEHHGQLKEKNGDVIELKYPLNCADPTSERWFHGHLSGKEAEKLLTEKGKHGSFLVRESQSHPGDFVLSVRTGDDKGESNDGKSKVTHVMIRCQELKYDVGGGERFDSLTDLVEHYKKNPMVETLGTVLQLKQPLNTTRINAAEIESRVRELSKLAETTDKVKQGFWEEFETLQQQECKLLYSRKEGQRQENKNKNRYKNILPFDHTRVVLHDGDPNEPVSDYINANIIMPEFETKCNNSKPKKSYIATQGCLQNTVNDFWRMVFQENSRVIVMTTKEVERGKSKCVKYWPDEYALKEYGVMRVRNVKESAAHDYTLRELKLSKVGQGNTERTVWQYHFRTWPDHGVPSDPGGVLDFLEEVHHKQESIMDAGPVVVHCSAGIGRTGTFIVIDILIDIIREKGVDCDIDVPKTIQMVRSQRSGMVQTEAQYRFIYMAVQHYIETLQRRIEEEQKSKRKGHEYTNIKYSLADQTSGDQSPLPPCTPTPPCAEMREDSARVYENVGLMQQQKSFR
Protocol: The inhibition of SHP2 by compounds of the invention was monitored using the surrogate substrate DiFMUP after protein activation by a peptide bearing two appropriately spaced phosphotyrosine. […] The generation of the DiFMU product by activated SHP2 was monitored through Fluorescence measurement with a PerkinElmer Envision reader. The inhibitor dose response curves were analyzed with Genedata Screener.
For `Cc1c(N2CCC3(CC2)Oc2ncccc2[C@H]3N)nc(C)n(-c2cccc(Cl)c2Cl)c1=O` [Compound 79a, (3M)-6-[(3R)-3-amino-3H-spiro[furo[2,3-b]pyridine-2,4′-piperidin]-1′-yl]-3-(2,3-dichlorophenyl)-2,5-dimethylpyrimidin-4-one], the IC50 was 0.3 µM.
In the case of `Cc1c(N[C@H]2CC[C@@H](N)CC2)ncn(-c2cccc(Cl)c2Cl)c1=O` [Compound 85, 6-(4-Amino-cyclohexylamino)-3-(2,3-dichloro-phenyl)-5-methyl-3H-pyrimidin-4-one], the IC50 is reported as greater than 10 µM.
Work on `[2H]C([2H])([2H])c1c(N2CCC(C)(N)CC2)nc(C)n(-c2cccc(Cl)c2Cl)c1=O` [Compound 94, 6-(4-amino-4-methylpiperidin-1-yl)-3-(2,3-dichlorophenyl)-5-(D3)methyl-2-methyl-3,4-dihydropyrimidin-4-one] yielded an IC50 of 1.4 µM.

Same assay, conditions: activating peptide IRSI_2pY 140 nM, DiFMUP, 60 min; read-out: SHP-2 biochemical assay IC50
`Cc1c(N2CCC3(CC2)CO[C@@H](C)[C@H]3N)nc(C)n(-c2ccc3ccccc3c2)c1=O` [Compound 45, 6-((3S,4S)-4-Amino-3-methyl-2-oxa-8-aza-spiro[4.5]dec-8-yl)-2,5-dimethyl-3-naphthalen-2-yl-3H-pyrimidin-4-one] showed an IC50 of 1.2 µM.
In the case of `COCC(O)CNC1CCN(c2cc(=O)n(-c3cccc(Cl)c3Cl)c(C)n2)CC1` (stereo not shown) [Compound 46, 3-(2,3-dichlorophenyl)-6-{4-[(2-hydroxy-3-methoxypropyl)-amino]piperidin-1-yl}-2-methyl-3,4-dihydropyrimidin-4-one], the IC50 is reported as greater than 10 µM.
Work on `Cc1c(N2CCC(C)(N)CC2)nc(C)n(-c2ccc3nccnc3c2)c1=O` [Compound 47, 6-(4-Amino-4-methyl-piperidin-1-yl)-2,5-dimethyl-3-quinoxalin-6-yl-3H-pyrimidin-4-one] yielded an IC50 greater than 10 µM.
With `Cc1c(N2CCC(C)(N)CC2)nc(C)n(-c2ccc3ccccc3c2Cl)c1=O` [Compound 48, 6-(4-Amino-4-methyl-piperidin-1-yl)-3-(1-chloro-naphthalen-2-yl)-2,5-dimethyl-3H-pyrimidin-4-one] the IC50 was 18 µM.
Work on `Cc1nc(N2CCC(C)(NCC3CCC(O)CC3)CC2)cc(=O)n1-c1cccc(Cl)c1Cl` (stereo not shown) [Compound 50, 3-(2,3-dichlorophenyl)-6-(4-{[(4-hydroxycyclohexyl)methyl]amino}-4-methylpiperidin-1-yl)-2-methyl-3,4-dihydropyrimidin-4-one] yielded an IC50 of 0.56 µM.
Work on `Cc1c(N2CCc3cccc(N)c3C2)nc(C)n(-c2cccc(Cl)c2Cl)c1=O` [Compound 51, 6-(8-amino-1,2,3,4-tetrahydroisoquinolin-2-yl)-3-(2,3-dichlorophenyl)-2,5-dimethyl-3,4-dihydropyrimidin-4-one] yielded an IC50 greater than 10 µM.
Molecule `Cc1c(N2CCC3(CC2)CO[C@@H](C)[C@H]3N)nc(C)n(-c2ccc3ccccc3c2Cl)c1=O` [Compound 52, 6-((3S,4S)-4-Amino-3-methyl-2-oxa-8-aza-spiro[4.5]dec-8-yl)-3-(1-chloro-naphthalen-2-yl)-2,5-dimethyl-3H-pyrimidin-4-one] has an IC50 of 0.59 µM.
`Cc1c(N2CCC3(CC2)CO[C@@H](C)[C@H]3N)nc(C)n(-c2ccc3nccnc3c2)c1=O` [Compound 53, 6-((3S,4S)-4-Amino-3-methyl-2-oxa-8-aza-spiro[4.5]dec-8-yl)-2,5-dimethyl-3-quinoxalin-6-yl-3H-pyrimidin-4-one] gave an IC50 of 6.1 µM.
`Cc1c(N2CCC(C)(CN)CC2)nc(C)n(-c2ccc3ccccc3c2Cl)c1=O` [Compound 54, 6-(4-Aminomethyl-4-methyl-piperidin-1-yl)-3-(1-chloro-naphthalen-2-yl)-2,5-dimethyl-3H-pyrimidin-4-one] was tested, and the IC50 was 5.6 µM.
`Cc1c(N2CCC(C)(CN)CC2)nc(C)n(-c2ccc3nccnc3c2)c1=O` [Compound 55, 6-(4-Aminomethyl-4-methyl-piperidin-1-yl)-2,5-dimethyl-3-quinoxalin-6-yl-3H-pyrimidin-4-one] was tested, and the IC50 was greater than 10 µM.
`Cc1nc(N2CC3CCC(C2)N3)cc(=O)n1-c1cccc(Cl)c1Cl` [Compound 56, 6-3,8-diazabicyclo[3.2.1]octan-3-yl-3-(2,3-dichlorophenyl)-2-methyl-3,4-dihydropyrimidin-4-one] gave an IC50 of 5.2 µM.
With `Cc1nc(N2C[C@H]3CC(O)C[C@@]3(CN)C2)cc(=O)n1-c1cccc(Cl)c1Cl` (stereo partly drawn) [Compound 59, 6-[(3aR,6aS)-3a-(aminomethyl)-5-hydroxy-octahydrocyclopenta[c]pyrrol-2-yl]-3-(2,3-dichlorophenyl)-2-methyl-3,4-dihydropyrimidin-4-one] the IC50 was 2.6 µM.
`Cc1nc(N2CC3CC4CC(C4(C)C)C3(CN)C2)cc(=O)n1-c1cccc(Cl)c1Cl` (stereo not shown) [Compound 60, 6-[2-(aminomethyl)-9,9-dimethyl-4-azatricyclo[6.1.1.0^2,6]decan-4-yl]-3-(2,3-dichlorophenyl)-2-methyl-3,4-dihydropyrimidin-4-one] gave an IC50 of 10 µM.
In the case of `Cc1nc(N2CCN3C(=O)C(N)CC3C2)cc(=O)n1-c1cccc(Cl)c1Cl` (stereo not shown) [Compound 61, 6-7-amino-6-oxo-octahydropyrrolo[1,2-a]pyrazin-2-yl-3-(2,3-dichlorophenyl)-2-methyl-3,4-dihydropyrimidin-4-one], the IC50 is reported as greater than 10 µM.
For `Cc1c(N2CCC(C)(N)CC2)ncn(-c2cccc(Cl)c2Cl)c1=O` [Compound 70, 6-(4-Amino-4-methyl-piperidin-1-yl)-3-(2,3-dichloro-phenyl)-5-methyl-3H-pyrimidin-4-one], the IC50 was greater than 10 µM.
In the case of `Cc1nc(N2CCC3(CC2)CO[C@@H](C)[C@H]3N)c(CCO)c(=O)n1-c1cccc(Cl)c1Cl` [Compound 76, 6-[(3S,4S)-4-amino-3-methyl-2-oxa-8-azaspiro[4.5]decan-8-yl]-3-(2,3-dichlorophenyl)-5-(2-hydroxyethyl)-2-methyl-3,4-dihydropyrimidin-4-one Hydrochloride], the IC50 is reported as 7 µM.
Work on `Cc1c(N2CCc3cc(N)ccc3C2)nc(C)n(-c2cccc(Cl)c2Cl)c1=O` [Compound 83, 6-(6-amino-1,2,3,4-tetrahydroisoquinolin-2-yl)-3-(2,3-dichlorophenyl)-2,5-dimethyl-3,4-dihydropyrimidin-4-one] yielded an IC50 greater than 10 µM.
Molecule `Cc1c(N2CCC3(CC2)CO[C@@H](C)[C@H]3N)nc(C)n(-c2cccc3ncsc23)c1=O` [Compound 84, 6-((3S,4S)-4-Amino-3-methyl-2-oxa-8-aza-spiro[4.5]dec-8-yl)-3-benzothiazol-7-yl-2,5-dimethyl-3H-pyrimidin-4-one] has an IC50 greater than 10 µM.
`Cc1c(N2CCC3(CC2)CC3CN)nc(C)n(-c2cccc(Cl)c2Cl)c1=O` (stereo not shown) [Compound 86, 6-[1-(aminomethyl)-6-azaspiro[2.5]octan-6-yl]-3-(2,3-dichlorophenyl)-2,5-dimethyl-3,4-dihydropyrimidin-4-one] was tested, and the IC50 was 4.6 µM.
For `Cc1c(N2CC(CN)C(C)(C)C2)nc(C)n(-c2cccc(Cl)c2Cl)c1=O` (stereo not shown) [Compound 87, 6-[4-(aminomethyl)-3,3-dimethylpyrrolidin-1-yl]-3-(2,3-dichlorophenyl)-2,5-dimeihyl-3,4-dihydropyrimidin-4-one], the IC50 was 7.9 µM.
For `Cc1c(N2CCC(CN)(CO)CC2)nc(C)n(-c2cccc(Cl)c2Cl)c1=O` [Compound 88, 6-[4-(aminomethyl)-4-(hydroxymethyl)piperidin-1-yl]-3-(2,3-dichlorophenyl)-2,5-dimethyl-3,4-dihydropyrimidin-4-one], the IC50 was 0.59 µM.
For `Cc1c(N2CCC3(CC2)CC3N)nc(C)n(-c2cccc(Cl)c2Cl)c1=O` (stereo not shown) [Compound 89, 6-1-amino-6-azaspiro[2.5]octan-6-yl-3-(2,3-dichlorophenyl)-2,5-dimethyl-3,4-dihydropyrimidin-4-one], the IC50 was 1.3 µM.
Molecule `Cc1c(N2CCCC3(CCC3N)C2)nc(C)n(-c2cccc(Cl)c2Cl)c1=O` (stereo not shown) [Compound 90, 6-1-amino-6-azaspiro[3.5]nonan-6-yl-3-(2,3-dichlorophenyl)-2,5-dimethyl-3,4-dihydropyrimidin-4-one] has an IC50 of 3.9 µM.
With `Cc1c(N2CCCC(CN)CC2)nc(C)n(-c2cccc(Cl)c2Cl)c1=O` (stereo not shown) [Compound 91, 6-[4-(aminomethyl)azepan-1-yl]-3-(2,3-dichlorophenyl)-2,5-dimethyl-3,4-dihydropyrimidin-4-one] the IC50 was 2 µM.
`Cc1c(N2CCO[C@H](CN)C2)nc(C)n(-c2cccc(Cl)c2Cl)c1=O` [Compound 92, 6-[(2R)-2-(aminomethyl)morpholin-4-yl]-3-(2,3-dichlorophenyl)-2,5-dimethyl-3,4-dihydropyrimidin-4-one] was tested, and the IC50 was 16 µM.
`Cc1nc(N2CCC(C)(N)CC2)c(C2CC2)c(=O)n1-c1cccc(Cl)c1Cl` [Compound 93, 6-(4-Amino-4-methyl-piperidin-1-yl)-5-cyclopropyl-3-(2,3-dichloro-phenyl)-2-methyl-3H-pyrimidin-4-one] showed an IC50 of 12 µM.
In the case of `COc1ccc(-n2c(C)nc(N3CCC4(CC3)CO[C@@H](C)[C@H]4N)c(C)c2=O)c(Cl)c1Cl` [Compound 98, 6-((3S,4S)-4-Amino-3-methyl-2-oxa-8-aza-spiro[4.5]dec-8-yl)-3-(2,3-dichloro-4-methoxy-phenyl)-2,5-dimethyl-3H-pyrimidin-4-one], the IC50 is reported as 0.5 µM.
Molecule `Cc1c(N2CCN3CC(N)CC3C2)nc(C)n(-c2cccc(Cl)c2Cl)c1=O` (stereo not shown) [Compound 100, (3M)-6-7-amino-octahydropyrrolo[1,2-a]pyrazin-2-yl-3-(2,3-dichlorophenyl)-2,5-dimethyl-3,4-dihydropyrimidin-4-one] has an IC50 of 5.8 µM.
`Cc1ccc(Cl)c(Cl)c1-n1c(C)nc(N2CCC3(CC2)CO[C@@H](C)[C@H]3N)c(C)c1=O` [Compound 102, 6-((3S,4S)-4-Amino-3-methyl-2-oxa-8-aza-spiro[4.5]dec-8-yl)-3-(2,3-dichloro-6-methyl-phenyl)-2,5-dimethyl-3H-pyrimidin-4-one] gave an IC50 of 7.3 µM.
In the case of `Cc1c(N2CCCC(C)(CN)CC2)nc(C)n(-c2cccc(Cl)c2Cl)c1=O` (stereo not shown) [Compound 107, (3M)-6-[4-(aminomethyl)-4-methylazepan-1-yl]-3-(2,3-dichlorophenyl)-2,5-dimethyl-3,4-dihydropyrimidin-4-one], the IC50 is reported as 1.2 µM.
In the case of `Cc1c(N2CCC(C)(CN)CC2)nc(N)n(-c2cccc(Cl)c2Cl)c1=O` [Compound 114, 2-Amino-6-(4-aminomethyl-4-methyl-piperidin-1-yl)-3-(2,3-dichloro-phenyl)-5-methyl-3H-pyrimidin-4-one], the IC50 is reported as 1.4 µM.

— patent US11001561B2, “Pyrimidinone derivatives as SHP2 antagonists” (MERCK PATENT GMBH, priority 2019, dated 2021)
